Assay results: US12440706B2, “Conjugated chemical inducers of degradation and methods of use” (Genentech, Inc., priority 2018, dated 2025)

Key:
ERα = biological target: T1, ERα (Homo sapiens, UniProt P03372); assay: Degradation of ERα by Ab-CIDEs (Example 3, FIGS. 1-3, Tables 2-4); type: cell-based; conditions: ERα degradation by Ab-CIDE
T1 construct: ERα degradation percent activity in MCF7 neo/HER2 cells
T1 sequence (P03372 1-595): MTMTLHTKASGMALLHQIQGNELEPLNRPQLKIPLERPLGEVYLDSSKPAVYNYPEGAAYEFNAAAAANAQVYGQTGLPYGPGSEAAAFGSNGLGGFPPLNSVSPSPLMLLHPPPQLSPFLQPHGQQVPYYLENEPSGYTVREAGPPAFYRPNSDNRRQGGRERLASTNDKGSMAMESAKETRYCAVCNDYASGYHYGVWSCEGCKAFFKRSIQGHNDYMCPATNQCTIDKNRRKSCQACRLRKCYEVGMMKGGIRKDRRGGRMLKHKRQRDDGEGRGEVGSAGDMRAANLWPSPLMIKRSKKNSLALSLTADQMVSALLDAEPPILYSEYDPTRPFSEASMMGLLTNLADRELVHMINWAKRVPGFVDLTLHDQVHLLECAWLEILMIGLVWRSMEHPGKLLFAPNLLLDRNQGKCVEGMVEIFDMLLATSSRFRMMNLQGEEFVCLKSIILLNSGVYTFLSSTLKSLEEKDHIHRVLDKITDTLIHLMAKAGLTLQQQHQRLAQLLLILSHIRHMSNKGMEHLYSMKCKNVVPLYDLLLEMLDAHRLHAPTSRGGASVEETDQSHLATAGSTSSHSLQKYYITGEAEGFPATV

EOL-1 AML xenografts = assay: EOL-1 AML subcutaneous xenograft efficacy; type: in vivo, mice; conditions: single IV dose 0.4 mg/kg
Procedure: Two human AML cell lines, EOL-1 (DSMZ; Braunschweig, Germany) and HL-60 (ATCC, Manassas, VA) were used to establish subcutaneous xenograft models for efficacy evaluation of the degrader-antibody conjugates. Tumor cells (5 million cells suspended in 0.1 mL of Hanks' Balanced Salt Solution supplemented with Matrigel) were inoculated to the flanks of female CB-17 Fox Chase SCID mice (Charles River Lab, Hollister, CA). When mean tumor size reached the desired volume (200-300 mm^3), animals were randomized into groups of n=5, each with similar tumor volume distributions, and each animal received an intraperitoneal dose of a mouse IgG2a anti-ragweed antibody in excess amount (30 mg/kg; to block Fcγ receptors frequently expressed on the surface of AML cells). Four hours later, vehicle or degrader-antibody conjugates were administered to the animals via single intravenous (IV) bolus injections through the tail vein. Tumors were measured in two dimensions (length and width) using calipers and the tumor volume was calculated using the formula: Tumor size (mm^3)=0.5×(length×width×width). The results were plotted as mean tumor volume+/−SEM of each group over time. Treatment groups were not blinded during tumor measurement.

## CC/C(=C(/c1ccc(OCCN(C)C(=O)CCOCCOCCC(=O)N[C@H](C(=O)N2C[C@H](OC(=O)OCC(C)(C)SS(C)(=O)=O)C[C@H]2C(=O)NCc2ccc(-c3scnc3C)cc2)C(C)(C)C)cc1)c1ccc(OP(=O)(O)O)cc1)c1ccccc1 [Thio Hu Anti- CD22 10F4v3 high DAR [LC:K149C HC:L174C HC:Y37]
ERα
  DC50: 1270 nM
  Sinf: −92%

## CC/C(=C(\c1ccc(O)cc1)c1ccc(OCCN(C)C(=O)CCOCCOCCC(=O)N[C@H](C(=O)N2C[C@H](OC(=O)OCC(C)(C)SS(C)(=O)=O)C[C@H]2C(=O)NCc2ccc(-c3scnc3C)cc2)C(C)(C)C)cc1)c1ccccc1 [Thio Hu Anti- CD22 10F4v3 high DAR [LC:K149C HC:L174C Y373C]]
ERα
  DC50: 304 nM
  Sinf: −92%

## CC/C(=C(/c1ccc(OCCN(C)C(=O)CCOCCOCCC(=O)N[C@H](C(=O)N2C[C@H](OC(=O)OCC(C)(C)SS(C)(=O)=O)C[C@H]2C(=O)NCc2ccc(-c3scnc3C)cc2)C(C)(C)C)cc1)c1ccc(OP(=O)(O)O)cc1)c1ccccc1 [Thio Hu Anti- Her2 7C2 high DAR [LC:K149C HC:L174C HC:Y373C]]
ERα
  DC50: 47.4 nM
  Sinf: −94%

## CC/C(=C(\c1ccc(O)cc1)c1ccc(OCCN(C)C(=O)CCOCCOCCC(=O)N[C@H](C(=O)N2C[C@H](OC(=O)OCC(C)(C)SS(C)(=O)=O)C[C@H]2C(=O)NCc2ccc(-c3scnc3C)cc2)C(C)(C)C)cc1)c1ccccc1 [Thio Hu Anti- Her2 7C2 high DAR [LC:K149C HC:L174C HC:Y373C]]
ERα
  DC50: 27.9 nM
  Sinf: −93%

## Cc1ncsc1-c1ccc(CNC(=O)[C@@H]2C[C@@H](O)CN2C(=O)[C@@H](NC(=O)CCCCCCCCCCNC(=O)c2cc3c(cc2CS(C)(=O)=O)-c2cn(C)c(=O)c4[nH]cc(c24)CN3c2ncc(F)cc2F)C(C)(C)C)cc1 [unconjugated CIDE]
EOL-1 AML xenografts
  efficacy in the EOL-1 model: no efficacy
